Laboratory results from patent publication US10150760B2, “Compounds for use in preparing heterocyclic triazole agonists of the APJ receptor” (AMGEN INC., priority 2016, dated 2018).

Biological target: human APJ receptor (Homo sapiens (Human), UniProt P35414)
Assay: [35S]GTPγS binding assay on membranes from CHO cells stably expressing human APJ receptor
Format: biochemical
Conditions: read-out: Activity hAPJ SPA EC50 IP
Method in brief: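 Membranes from CHO cells stably expressing human APJ incubated with ligand, 0.2 nM [35S]GTPγS and WGA SPA beads in HEPES pH 7.5 with 5 mM MgCl2, 200 mM NaCl, 3 μM GDP, 90 min at RT. Nonspecific binding defined with 100 μM GTPγS; EC50 by non-linear regression.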

Sequence of human APJ receptor (P35414 whole entry): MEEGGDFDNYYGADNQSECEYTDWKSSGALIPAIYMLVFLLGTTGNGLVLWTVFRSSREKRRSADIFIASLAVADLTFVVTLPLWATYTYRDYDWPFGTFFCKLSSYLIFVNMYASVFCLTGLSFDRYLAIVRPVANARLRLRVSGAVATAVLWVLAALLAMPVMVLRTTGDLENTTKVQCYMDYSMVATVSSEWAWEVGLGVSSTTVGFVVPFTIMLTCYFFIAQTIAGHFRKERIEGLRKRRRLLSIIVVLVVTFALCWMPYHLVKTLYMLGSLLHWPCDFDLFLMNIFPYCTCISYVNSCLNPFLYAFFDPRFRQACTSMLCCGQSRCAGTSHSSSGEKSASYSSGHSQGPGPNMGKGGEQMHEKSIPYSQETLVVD

SMILES	EC50
COc1cccc(OC)c1-n1c(NS(=O)(=O)[C@@H](C)[C@H](OC)c2ncc(Cl)cn2)nnc1[C@H]1CCCCO1 (single isomer, unassigned) [Example 83.0, (1R,2S)-1-(5-chloropyrimidin-2-yl)-N-(4-(2,6-dimethoxyphenyl)-5-((S)-tetrahydro-2H-pyran-2-yl)-4H-1,2,4-triazol-3-yl)-1-methoxypropane-2-sulfonamide or (1R,2S)-1-(5-chloropyrimidin-2-yl)-N-(4-(2,6-dimethoxyphenyl)-5-((R)-tetrahydro-2H-pyran-2-yl)-4H-1,2,4-triazol-3-yl)-1-methoxypropane-2-sulfonamide]	10 nM
COc1cccc(OC)c1-n1c(NS(=O)(=O)[C@@H](C)[C@H](OC)c2ncc(Cl)cn2)nnc1[C@H]1CCCCO1 (single isomer, unassigned) [Example 84.0, (1R,2S)-1-(5-chloropyrimidin-2-yl)-N-(4-(2,6-dimethoxyphenyl)-5-((S)-tetrahydro-2H-pyran-2-yl)-4H-1,2,4-triazol-3-yl)-1-methoxypropane-2-sulfonamide or (1R,2S)-1-(5-chloropyrimidin-2-yl)-N-(4-(2,6-dimethoxyphenyl)-5-((R)-tetrahydro-2H-pyran-2-yl)-4H-1,2,4-triazol-3-yl)-1-methoxypropane-2-sulfonamide]	0.8 nM
COc1cccc(OC)c1-n1c(NS(=O)(=O)[C@@H](C)[C@H](C)c2ncc(C)cn2)nnc1[C@H]1CCCCO1 (single isomer, unassigned) [Example 85.0, (2S,3R)-N-(4-(2,6-dimethoxyphenyl)-5-((S)-tetrahydro-2H-pyran-2-yl)-4H-1,2,4-triazol-3-yl)-3-(5-methylpyrimidin-2-yl)butane-2-sulfonamide or (2S,3R)-N-(4-(2,6-dimethoxyphenyl)-5-((R)-tetrahydro-2H-pyran-2-yl)-4H-1,2,4-triazol-3-yl)-3-(5-methylpyrimidin-2-yl)butane-2-sulfonamide]	9.6 nM
COc1cccc(OC)c1-n1c(NS(=O)(=O)[C@@H](C)[C@H](C)c2ncc(C)cn2)nnc1[C@H]1CCCCO1 (single isomer, unassigned) [Example 86.0, (2S,3R)-N-(4-(2,6-dimethoxyphenyl)-5-((S)-tetrahydro-2H-pyran-2-yl)-4H-1,2,4-triazol-3-yl)-3-(5-methylpyrimidin-2-yl)butane-2-sulfonamide or (2S,3R)-N-(4-(2,6-dimethoxyphenyl)-5-((R)-tetrahydro-2H-pyran-2-yl)-4H-1,2,4-triazol-3-yl)-3-(5-methylpyrimidin-2-yl)butane-2-sulfonamide]	2.1 nM
COc1cccc(OC)c1-n1c(NS(=O)(=O)[C@@H](C)[C@H](C)c2ncc(Cl)cn2)nnc1[C@H]1CCCCO1 (single isomer, unassigned) [Example 87.0, (2S,3R)-3-(5-chloropyrimidin-2-yl)-N-(4-(2,6-dimethoxyphenyl)-5-((S)-tetrahydro-2H-pyran-2-yl)-4H-1,2,4-triazol-3-yl)butane-2-sulfonamide or (2S,3R)-3-(5-chloropyrimidin-2-yl)-N-(4-(2,6-dimethoxyphenyl)-5-((S)-tetrahydro-2H-pyran-2-yl)-4H-1,2,4-triazol-3-yl)butane-2-sulfonamide]	2.4 nM
COc1cccc(OC)c1-n1c(NS(=O)(=O)[C@@H](C)[C@H](C)c2ncc(Cl)cn2)nnc1[C@H]1CCCCO1 (single isomer, unassigned) [Example 88.0, (2S,3R)-3-(5-chloropyrimidin-2-yl)-N-(4-(2,6-dimethoxyphenyl)-5-((S)-tetrahydro-2H-pyran-2-yl)-4H-1,2,4-triazol-3-yl)butane-2-sulfonamide or (2S,3R)-3-(5-chloropyrimidin-2-yl)-N-(4-(2,6-dimethoxyphenyl)-5-((S)-tetrahydro-2H-pyran-2-yl)-4H-1,2,4-triazol-3-yl)butane-2-sulfonamide]	0.42 nM
COc1cccc(OC)c1-n1c(NS(=O)(=O)[C@@H](C)[C@H](C)c2cnc(C)cn2)nnc1[C@H]1CCCO1 (single isomer, unassigned) [Example 89.0, (2S,3R)-N-(4-(2,6-dimethoxyphenyl)-5-((S)-tetrahydrofuran-2-yl)-4H-1,2,4-triazol-3-yl)-3-(5-methylpyrazin-2-yl)butane-2-sulfonamide or (2S,3R)-N-(4-(2,6-dimethoxyphenyl)-5-((R)-tetrahydrofuran-2-yl)-4H-1,2,4-triazol-3-yl)-3-(5-methylpyrazin-2-yl)butane-2-sulfonamide]	23 nM
COc1cccc(OC)c1-n1c(NS(=O)(=O)[C@@H](C)[C@H](C)c2cnc(C)cn2)nnc1[C@H]1CCCO1 (single isomer, unassigned) [Example 90.0, (2S,3R)-N-(4-(2,6-dimethoxyphenyl)-5-((S)-tetrahydrofuran-2-yl)-4H-1,2,4-triazol-3-yl)-3-(5-methylpyrazin-2-yl)butane-2-sulfonamide or (2S,3R)-N-(4-(2,6-dimethoxyphenyl)-5-((R)-tetrahydrofuran-2-yl)-4H-1,2,4-triazol-3-yl)-3-(5-methylpyrazin-2-yl)butane-2-sulfonamide]	370 nM
COc1ncnc(OC)c1-n1c(NS(=O)(=O)[C@@H](C)[C@H](OC)c2ncc(Cl)cn2)nnc1C1CCCOC1 (single isomer, unassigned) [Example 91.0, (1R,2S)-1-(5-chloropyrimidin-2-yl)-N-(4-(4,6-dimethoxypyrimidin-5-yl)-5-((S)-tetrahydro-2H-pyran-3-yl)-4H-1,2,4-triazol-3-yl)-1-methoxypropane-2-sulfonamide or (1R,2S)-1-(5-chloropyrimidin-2-yl)-N-(4-(4,6-dimethoxypyrimidin-5-yl)-5-((R)-tetrahydro-2H-pyran-3-yl)-4H-1,2,4-triazol-3-yl)-1-methoxypropane-2-sulfonamide]	290 nM
COc1ncnc(OC)c1-n1c(NS(=O)(=O)[C@@H](C)[C@H](OC)c2ncc(Cl)cn2)nnc1[C@H]1CCCOC1 (single isomer, unassigned) [Example 92.0, (1R,2S)-1-(5-chloropyrimidin-2-yl)-N-(4-(4,6-dimethoxypyrimidin-5-yl)-5-((S)-tetrahydro-2H-pyran-3-yl)-4H-1,2,4-triazol-3-yl)-1-methoxypropane-2-sulfonamide or (1R,2S)-1-(5-chloropyrimidin-2-yl)-N-(4-(4,6-dimethoxypyrimidin-5-yl)-5-((R)-tetrahydro-2H-pyran-3-yl)-4H-1,2,4-triazol-3-yl)-1-methoxypropane-2-sulfonamide]	42 nM
COc1ncnc(OC)c1-n1c(NS(=O)(=O)[C@@H](C)[C@H](C)c2ncc(Cl)cn2)nnc1[C@H]1CCOC1 (single isomer, unassigned) [Example 93.0, (2S,3R)-3-(5-chloropyrimidin-2-yl)-N-(4-(4,6-dimethoxypyrimidin-5-yl)-5-((R)-tetrahydrofuran-3-yl)-4H-1,2,4-triazol-3-yl)butane-2-sulfonamide or (2S,3R)-3-(5-chloropyrimidin-2-yl)-N-(4-(4,6-dimethoxypyrimidin-5-yl)-5-((S)-tetrahydrofuran-3-yl)-4H-1,2,4-triazol-3-yl)butane-2-sulfonamide]	170 nM
COc1ncnc(OC)c1-n1c(NS(=O)(=O)[C@@H](C)[C@H](C)c2ncc(Cl)cn2)nnc1[C@H]1CCOC1 (single isomer, unassigned) [Example 94.0, (2S,3R)-3-(5-chloropyrimidin-2-yl)-N-(4-(4,6-dimethoxypyrimidin-5-yl)-5-((R)-tetrahydrofuran-3-yl)-4H-1,2,4-triazol-3-yl)butane-2-sulfonamide or (2S,3R)-3-(5-chloropyrimidin-2-yl)-N-(4-(4,6-dimethoxypyrimidin-5-yl)-5-((S)-tetrahydrofuran-3-yl)-4H-1,2,4-triazol-3-yl)butane-2-sulfonamide]	190 nM
COc1ncnc(OC)c1-n1c(NS(=O)(=O)[C@@H](C)[C@@H](OC(C)C)c2ncc(C)cn2)nnc1[C@H]1CCCO1 (single isomer, unassigned) [Example 95.0, (1S,2S)-N-(4-(4,6-dimethoxypyrimidm-5-yl)-5-((S)-tetrahydrofuran-2-yl)-4H-1,2,4-triazol-3-yl)-1-isopropoxy-1-(5-methylpyrimidin-2-yl)propane-2-sulfonamide or (1S,2S)-N-(4-(4,6-dimethoxypyrimidin-5-yl)-5-((R)-tetrahydrofuran-2-yl)-4H-1,2,4-triazol-3-yl)-1-isopropoxy-1-(5-methylpyrimidin-2-yl)propane-2-sulfonamide]	15 nM
COc1ncnc(OC)c1-n1c(NS(=O)(=O)[C@@H](C)[C@@H](OC(C)C)c2ncc(C)cn2)nnc1[C@H]1CCCO1 (single isomer, unassigned) [Example 96.0, (1S,2S)-N-(4-(4,6-dimethoxypyrimidm-5-yl)-5-((S)-tetrahydrofuran-2-yl)-4H-1,2,4-triazol-3-yl)-1-isopropoxy-1-(5-methylpyrimidin-2-yl)propane-2-sulfonamide or (1S,2S)-N-(4-(4,6-dimethoxypyrimidin-5-yl)-5-((R)-tetrahydrofuran-2-yl)-4H-1,2,4-triazol-3-yl)-1-isopropoxy-1-(5-methylpyrimidin-2-yl)propane-2-sulfonamide]	190 nM
COc1cccc(OC)c1-n1c(NS(=O)(=O)[C@@H](C)[C@@H](OC(C)C)c2ncc(C)cn2)nnc1[C@H]1CCCO1 (single isomer, unassigned) [Example 98.0, (1S,2S)-N-(4-(2,6-dimethoxyphenyl)-5-((S)-tetrahydrofuran-2-yl)-4H-1,2,4-triazol-3-yl)-1-isopropoxy-1-(5-methylpyrimidin-2-yl)propane-2-sulfonamide or (1S,2S)-N-(4-(2,6-dimethoxyphenyl)-5-((R)-tetrahydrofuran-2-yl)-4H-1,2,4-triazol-3-yl)-1-isopropoxy-1-(5-methylpyrimidin-2-yl)propane-2-sulfonamide]	0.78 nM
